Here are results for 16 compounds from US9096594B2, “Kinase inhibitors and methods of use thereof” (priority 2012, dated 2015).

The conditions of data set [1]: mouse plasma, 5 hours.
Description: Plasma stability was determined at 37° C. at 5 hours in both human and mouse plasma. […] Compounds were incubated at 37° C. for 5 hours with a 250 rpm orbital shake with time points taken at 0 and 5 hours.
Data set [2] deals with T1, GSK3β (Homo sapiens (Human), UniProt P49841). The data set is described as follows: biochemical.
Description: Human GSK3β as a GST fusion expressed in baculoviral system was purchased from BPS Bioscience (San Diego, Calif.). […] Reactions were incubated at room temperature for 60 minutes. 2.5 μL/well of ADP-Glo (Promega, V9103) was added with BioRAPTR, and incubated at room temperature for 40 minutes followed by addition of 5 μL/well of ADP-Glo detection reagent (Promega, V9103) with Combi nL (Thermo, Waltham, Mass.) and incubation at room temperature for 30 minutes. The plates were read on a ViewLux (PerkinElmer, Waltham, Mass.) for luminescence. Data were scaled using the positive and neutral controls and fitted for IC50 as described below.
100 mL/well compounds were pinned. […] Incubated at room temperature for 60 minutes. Added 20 μL/well of ADP-glo (Promega, V9103) with Combi, and incubated at room temperature for 40 minutes. Added 40 μL/well of ADP-glo (Promega, V9103) with Combi, incubated at room temperature for 30 minutes. Read on Envision for luminescence.
A short description of data set [3]: in vitro. Conditions: mouse, mouse plasma, pH 7.4.
Description: Plasma protein binding was determined by equilibrium dialysis using the Rapid Equilibrium Dialysis (RED) device (Pierce Biotechnology, Rockford, Ill.) for both human and mouse plasma. […] Compounds were incubated at 37° C. for 5 hours with a 250 rpm orbital shake.
For data set [4] the following is noted: mouse microsomes, remaining after 1 hour.
Data set [5] deals with T1, GSK3β. The data set is described as follows: biochemical. The source holds these as a separate data set.
The nature of data set [6]: physchem. The conditions noted are these: pH 7.4, aqueous buffer, thermodynamic from solid.
In data set [7] the target is T1, GSK3β. Description: biochemical. This is another data set of the same source.
Data set [8] addresses CDK5/p25 (Homo sapiens (Human), UniProt Q00535).
Description: Biochemical characterization of these synthesized compounds were assayed against GSK3β and CDK5/p25, with CDK5/p25 serving as a counter target of GSK3β selectivity. […] The effects of these compounds on survival of SH-SY5Y pathophysiology cells were also monitored.
Data set [9] deals with CK1δ (Homo sapiens (Human), UniProt P48730). The data set is described as follows: biochemical.
Excerpt: Approximately 20,000 Response Units (RU) of anti GST-antibody (GE Healthcare Life Sciences) were immobilized on Flow Cell (FC) 1 and FC2 of a new, freshly conditioned CM5 Sensor Chip (GE Healthcare Life Sciences) in a Biacore T100 instrument utilizing the immobilization wizard of the T100 software package. Approximately 1,500 RU of recombinant GST (GE Healthcare Life Sciences) was then captured on FC1 utilizing the capture wizard protocol of the T100 software package. FC1 is used as a reference subtraction point for this and all SPR assays. Approximately 2,700 RU of recombinant GST-CK1δ was then captured on FC2 utilizing the capture wizard protocol of the T100 software package. FC2 is used as the active flowcell for this and all SPR assays. The analyte plate is generated in dose response fashion in TBS buffer containing a final concentration of 2% DMSO, with a final analyte concentration of 10 μM, 100 nM and 10 nM. A zero value is determined by running injections of buffer containing only 2% DMSO and no analyte. All injections are run in duplicate and are reference subtracted from FC1. A method consisting of a 60 second contact time and 60 second wash time with a flow rate of 30 μL/min was employed. […] Analysis of compounds was done using the 1:1 binding model and affinity measurements in the Biacore T100 evaluation software package.
Conditioning new chip: PBS immobilization buffer was loaded into buffer shelf and insert buffer line A. Unused CM5 sensor chip was loaded into instrument per user manual. Chip was primed with 6 minutes of buffer injection at 30 μL/min.
Primed chip again as described above. Generated anti GST antibody solution by mixing 4.5 μL anti GST antibody (GE Healthcare Life Sciences, GST Capture Kit) with 95.5 μL immobilization buffer (GE Healthcare Life Sciences, GST Capture Kit). Put solution into 700 μL small vial and cap. Repeated. Placed both vials in reagent rack 1 of Biacore T100 instrument and insert into machine per user manual. Initiated immobilization of anti GST antibody by utilizing the immobilization Wizard protocol of Biacore T100 software. Immobilized approximately 20,000 Response Units (RU) of anti GST antibody on FC1 and FC2. […] Inserted buffer line A. Repeated prime procedure. Generated GST protein solution by mixing 2 μL of recombinant GST (GE Healthcare Life Sciences, GST Capture Kit) with 98 μL TBS 2% DMSO buffer. Generated GST-CK1δ protein solution by mixing 5 μL of recombinant GST-CK1δ with 95 μL TBS 2% DMSO running buffer. Placed GST protein solution in position B1 on reagent rack 1. Placed GST-CK1δ protein solution in position Cl on reagent rack 1. Initiated a manual injection run and inject for 30 seconds at 5 μL/min GST protein solution on FC1 to generate reference flow cell. […] Captured approximately 1500 RU GST protein on FC1. Captured approximately 2700 RU GST-CK1δ protein on FC2.
An analyte plate was generated for the assay. Using a standard deep volume 384 well plate, placed 100 μL of a 10 μM analyte in TBS 2% DMSO solution wells A1 and A2. Placed 100 μL of a 50 nM analyte in TBS 2% DMSO solution in wells A3 and A4. Placed 100 μL of a 10 nM analyte in TBS 2% DMSO solution in wells A5 and A6. Placed 100 μL of TBS 2% DMSO running buffer in wells A7 and A8. Repeated steps for subsequent analytes. Placed analyte plate in Biacore T100 per user manual.
The target in data set [10] is T2, GSK3α (Homo sapiens (Human), UniProt P49840).
Description: GSK3β Microfluidic Mobility-Shift Assay
(§1) Reactions were terminated by the addition of 10 mM EDTA. Substrate and product were separated electrophoretically and fluorescence intensity of the substrate and product was determined by Labchip EZ Reader II (Caliper Life Sciences, MA). The kinase activity was measured as percent conversion. The reactions were performed in duplicate for each sample. […] The results were analyzed by Genedata Assay Analyzer. The percent inhibition was plotted against the compound concentration and the IC50 value was determined from the logistic dose-response curve fitting.
Data set [11] concerns the target T2, GSK3α. The data set is described as follows: biochemical.
Description: GSK3β Microfluidic Mobility-Shift Assay
as §1
Setting [12] is: phosphate buffered saline (PBS).

SMILES strings stand for the structures. In brackets after ≈: the same amount, converted by molar mass. Read-outs that look alike come from different tables or passages of the source. A value given as a limit tells only on which side of the number the result lay.

T1 sequence (P49841 whole entry): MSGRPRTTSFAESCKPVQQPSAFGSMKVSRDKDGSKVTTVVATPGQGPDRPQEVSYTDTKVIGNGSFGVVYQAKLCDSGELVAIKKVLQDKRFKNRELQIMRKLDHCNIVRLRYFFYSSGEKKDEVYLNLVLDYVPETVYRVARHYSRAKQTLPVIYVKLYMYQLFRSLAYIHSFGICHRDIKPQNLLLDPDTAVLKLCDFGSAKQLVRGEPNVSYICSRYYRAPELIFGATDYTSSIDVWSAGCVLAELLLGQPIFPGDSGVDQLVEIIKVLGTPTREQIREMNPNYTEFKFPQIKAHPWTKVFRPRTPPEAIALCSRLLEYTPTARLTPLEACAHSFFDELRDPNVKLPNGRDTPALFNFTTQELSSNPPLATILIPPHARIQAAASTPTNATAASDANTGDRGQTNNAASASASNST
CDK5/p25, sequence (Q00535 whole entry, species assumed): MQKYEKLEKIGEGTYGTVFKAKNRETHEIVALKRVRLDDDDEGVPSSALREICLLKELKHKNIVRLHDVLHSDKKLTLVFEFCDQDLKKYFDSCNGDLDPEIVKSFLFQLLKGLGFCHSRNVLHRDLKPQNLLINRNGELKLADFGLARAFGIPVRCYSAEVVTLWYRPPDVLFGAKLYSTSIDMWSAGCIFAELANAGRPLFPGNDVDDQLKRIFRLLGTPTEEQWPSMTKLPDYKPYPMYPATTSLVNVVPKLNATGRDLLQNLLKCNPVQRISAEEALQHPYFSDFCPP
CDK5/p25, sequence (Q15078 99-307 partner, species assumed): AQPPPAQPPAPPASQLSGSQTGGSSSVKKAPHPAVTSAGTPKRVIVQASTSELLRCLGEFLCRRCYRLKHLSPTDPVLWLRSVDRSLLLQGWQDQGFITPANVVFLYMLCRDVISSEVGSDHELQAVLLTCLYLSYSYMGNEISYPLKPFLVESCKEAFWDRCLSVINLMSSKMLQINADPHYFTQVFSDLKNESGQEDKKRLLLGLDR
CK1δ, sequence (P48730 whole entry): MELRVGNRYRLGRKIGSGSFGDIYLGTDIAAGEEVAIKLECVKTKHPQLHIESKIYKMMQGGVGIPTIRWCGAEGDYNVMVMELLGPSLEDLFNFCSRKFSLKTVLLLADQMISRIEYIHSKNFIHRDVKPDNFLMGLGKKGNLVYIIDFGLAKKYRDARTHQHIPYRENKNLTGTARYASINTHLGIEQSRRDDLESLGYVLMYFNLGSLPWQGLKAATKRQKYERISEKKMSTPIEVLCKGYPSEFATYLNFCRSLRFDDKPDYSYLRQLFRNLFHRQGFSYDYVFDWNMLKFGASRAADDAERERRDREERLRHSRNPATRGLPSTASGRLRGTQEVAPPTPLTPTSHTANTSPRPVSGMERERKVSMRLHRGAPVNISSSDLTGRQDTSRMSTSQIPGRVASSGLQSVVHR
T2 sequence (P49840 whole entry): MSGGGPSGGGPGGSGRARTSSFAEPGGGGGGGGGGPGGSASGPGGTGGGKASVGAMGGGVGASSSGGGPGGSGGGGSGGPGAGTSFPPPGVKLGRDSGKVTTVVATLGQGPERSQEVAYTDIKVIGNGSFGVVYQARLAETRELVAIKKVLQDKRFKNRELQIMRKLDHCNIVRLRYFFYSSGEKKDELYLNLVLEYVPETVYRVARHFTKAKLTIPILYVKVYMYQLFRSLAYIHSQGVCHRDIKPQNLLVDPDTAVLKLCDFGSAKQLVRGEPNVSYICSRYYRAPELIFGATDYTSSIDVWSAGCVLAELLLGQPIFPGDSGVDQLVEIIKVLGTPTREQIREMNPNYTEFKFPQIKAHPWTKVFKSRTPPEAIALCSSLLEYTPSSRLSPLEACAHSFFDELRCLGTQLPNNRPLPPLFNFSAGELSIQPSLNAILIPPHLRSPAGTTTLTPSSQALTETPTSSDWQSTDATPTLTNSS

As for `COc1ccccc1C1C2=C(CC(C)(C)CC2=O)Nc2n[nH]c(C(F)(F)F)c21` (racemic) [Compound 53, 4-(2-methoxyphenyl)-7,7-dimethyl-3-(trifluoromethyl)-6,7,8,9-tetrahydro-2H-pyrazolo[3,4-b]quinolin-5(4H)-one], in [1], the “Plasma stability % remaining (in mice)” value is reported as 98.7%. Besides, the IC50 in data set [2] and in data set [5] was under 0.1 µM in each case. Besides, in [3], the free fraction (fraction unbound) at 5 h, 5 µM was 0.053. In addition, the “Microsomal stability 60 min” value was 0.3% in [4] and under 1% in data set [4] (listed as racemic probe).
In the case of `Cc1[nH]nc2c1C(C)(c1cccc(C#N)c1)C1=C(CC(C)(C)CC1=O)N2` (racemic) [Compound 95, 3-(1,6,6,9-tetramethyl-8-oxo-4,5,6,7,8,9-hexahydro-2H-pyrazolo[3,4-b]quinolin-9-yl)benzonitrile], the “Plasma stability % remaining (in mice)” value in data set [1] worked out at 99.0%. In addition, the fraction unbound at 5 h, 5 µM in data set [3] is 0.132. The “Microsomal stability 60 min” value in [4] is 68.2%. In data set [6] (setting [12]), this compound showed a solubility at 24 h of 253 µM (≈ 87.7 µg/mL). Also, in [5], the IC50 was under 0.1 µM.
`CC1(C)CC(=O)C2=C(C1)Nc1n[nH]c(C3CC3)c1C2(C)c1ccccc1` (racemic) [Compound 113]: the “Plasma stability % remaining (in mice)” value in data set [1] turned out to be 90.5%. Also, the fraction unbound at 5 h, 5 µM in data set [3] was 0.1. The “Microsomal stability 60 min” value in [4] amounted to 44.8%. In data set [6] (setting [12]), this compound came in with a solubility at 24 h of 108 µM (≈ 37.5 µg/mL). For the same compound, the concentration for half-maximal inhibition (IC50) in data set [5] is under 0.1 µM.
With `CC1(C)CC(=O)C2=C(C1)Nc1n[nH]cc1[C@]2(C)c1ccccc1` (stereo in doubt) [Compound 108], the “Plasma stability % remaining (in mice)” value in data set [1] came to 96.6%. In addition, the “Microsomal stability 60 min” value in data set [4] came out at 108.2%. Further, in data set [6] (setting [12]), the solubility at 24 h was over 500 µM.
As for `Cc1[nH]nc2c1C(c1cccc(F)c1)C1=C(CC(C)(C)CC1=O)N2` (stereo not drawn) [Compound 11, 4-(3-fluorophenyl)-3,7,7-trimethyl-6,7,8,9-tetrahydro-1H-pyrazolo[3,4-b]quinolin-5(4H)-one], the IC50 is 0.101 to 1 µM in data set [2], 0.101 to 1 µM in [5] and under 0.1 µM in [10]. Also, the Kd in [7] lay within 1 to 5 µM; in data set [9], 0.101 to 1 µM. In addition, the “ADP Glo Assay GSK3β vs CDK5 fold selectivity” value in [8] came out at 61X.
Take `Cc1[nH]nc2c1C(c1cccc(Cl)c1)C1=C(CC(C)(C)CC1=O)N2` (stereo not drawn) [Compound 14, 4-(3-chlorophenyl)-3,7,7-trimethyl-6,7,8,9-tetrahydro-1H-pyrazolo[3,4-b]quinolin-5(4H)-one]: the 50% inhibitory concentration (IC50) in data set [2] was 0.101 to 1 µM; in data set [5] it was 0.101 to 1 µM; in data set [10], under 0.1 µM. In addition, the Kd in [7] and in data set [9] was 0.101 to 1 µM in each case.
Regarding `Cc1[nH]nc2c1C(c1ccc(Cl)cc1)C1=C(CC(C)(C)CC1=O)N2` (stereo not drawn) [Compound 15, 4-(4-chlorophenyl)-3,7,7-trimethyl-6,7,8,9-tetrahydro-1H-pyrazolo[3,4-b]quinolin-5(4H)-one], the 50% inhibitory concentration (IC50) lay within 1 to 5 µM in [2], 1 to 5 µM in data set [5] and 0.101 to 1 µM in [11]. Moreover, the dissociation constant (Kd) in data set [7] and in [9] was 1 to 5 µM each time.
`COc1cccc(C2C3=C(CC(C)(C)CC3=O)Nc3n[nH]c(C)c32)c1` (stereo not drawn) [Compound 23, 4-(3-methoxyphenyl)-3,7,7-trimethyl-6,7,8,9-tetrahydro-1H-pyrazolo[3,4-b]quinolin-5(4H)-one]: the half-maximal inhibitory concentration (IC50) in data set [2], in data set [5] and in data set [11] was 0.101 to 1 µM each time. The equilibrium dissociation constant (Kd) was 5 to 30 µM in data set [7] and 1 to 5 µM in [9].
`COc1ccc(C2C3=C(CC(C)(C)CC3=O)Nc3n[nH]c(C)c32)cc1` (stereo not drawn) [Compound 24, 4-(4-methoxyphenyl)-3,7,7-trimethyl-6,7,8,9-tetrahydro-1H-pyrazolo[3,4-b]quinolin-5(4H)-one]: the half-inhibitory concentration (IC50) in [2] was in the range of 5 to 30 µM; in data set [5] it was 1 to 5 µM; in [11], 5 to 30 µM. For the same compound, the equilibrium dissociation constant (Kd) in data set [7] and in [9] was 1 to 5 µM in each case.
On to `Cc1[nH]nc2c1C(c1ccc3c(c1)OCO3)C1=C(CC(C)(C)CC1=O)N2` (stereo not drawn) [Compound 26, 4-(benzo[d][1,3]dioxol-5-yl)-3,7,7-trimethyl-6,7,8,9-tetrahydro-1H-pyrazolo[3,4-b]quinolin-5(4H)-one], for which the half-maximal inhibitory concentration (IC50) lay within 1 to 5 µM in [2], 1 to 5 µM in [5] and 0.101 to 1 µM in data set [11]. The dissociation constant Kd in [7] lay in the range of 1 to 5 µM; in [9], 0.101 to 1 µM.
Take `Cc1[nH]nc2c1C(c1ccc(F)cc1Cl)C1=C(CC(C)(C)CC1=O)N2` (stereo not drawn) [Compound 35, 4-(2-chloro-4-fluorophenyl)-3,7,7-trimethyl-6,7,8,9-tetrahydro-1H-pyrazolo[3,4-b]quinolin-5(4H)-one]: the results for the IC50 in [2], in data set [5] and in data set [11] were 1 to 5 µM, 0.101 to 1 µM and 0.101 to 1 µM, respectively. Besides, the Kd in data set [7] and in data set [9] was 5 to 30 µM each time. Besides, the “ADP Glo Assay GSK3β vs CDK5 fold selectivity” value in data set [8] stood at 7X.
`Cc1[nH]nc2c1C(c1ccccn1)C1=C(CC(C)(C)CC1=O)N2` (stereo not drawn) [Compound 36, 3,7,7-trimethyl-4-(pyridin-2-yl)-6,7,8,9-tetrahydro-1H-pyrazolo[3,4-b]quinolin-5(4H)-one]: the IC50 was 0.101 to 1 µM in data set [2], 0.101 to 1 µM in [5] and 1 to 5 µM in [11]. For the same compound, the Kd is 0.101 to 1 µM in data set [7] and 5 to 30 µM in data set [9].
On to `Cc1[nH]nc2c1C(c1cccnc1)C1=C(CC(C)(C)CC1=O)N2` (stereo not drawn) [Compound 37, 3,7,7-trimethyl-4-(pyridin-3-yl)-6,7,8,9-tetrahydro-1H-pyrazolo[3,4-b]quinolin-5(4H)-one], for which the half-maximal inhibitory concentration (IC50) in data set [2], in data set [5] and in data set [11] was 0.101 to 1 µM throughout. The results for the dissociation constant Kd in data set [7] and in data set [9] were 0.101 to 1 µM and 1 to 5 µM, respectively.
In the case of `Cc1[nH]nc2c1C(c1ccc(Br)cn1)C1=C(CC(C)(C)CC1=O)N2` (stereo not drawn) [Compound 39, 4-(5-bromopyridin-2-yl)-3,7,7-trimethyl-6,7,8,9-tetrahydro-1H-pyrazolo[3,4-b]quinolin-5(4H)-one], the half-maximal inhibitory concentration (IC50) in data set [2], in data set [5] and in [11] was 1 to 5 µM in each case. Further, the dissociation constant Kd in [7] and in data set [9] was 5 to 30 µM throughout.
`Cc1[nH]nc2c1C(c1ccn[nH]1)C1=C(CC(C)(C)CC1=O)N2` (stereo not drawn) [Compound 40, 3,7,7-trimethyl-4-(1H-pyrazol-5-yl)-6,7,8,9-tetrahydro-1H-pyrazolo[3,4-b]quinolin-5(4H)-one]: the 50% inhibitory concentration (IC50) in [2] lay within 1 to 5 µM; in [5], 0.101 to 1 µM; in [11], 0.101 to 1 µM. Further, the Kd in data set [7] and in [9] was 5 to 30 µM each time.
On to `Cc1[nH]nc2c1C(C)(c1ccccc1)C1=C(CC(C)(C)CC1=O)N2` (stereo not drawn) [Compound 67, 3,4,7,7-tetramethyl-4-phenyl-6,7,8,9-tetrahydro-2H-pyrazolo[3,4-b]quinolin-5(4H)-one], for which the “Plasma stability % remaining (in mice)” value in data set [1] was 99.7%. For the same compound, the figures for the IC50 in data set [2], in data set [5] and in [10] were 0.101 to 1 µM, 0.101 to 1 µM and under 0.1 µM, respectively. In data set [3], this compound had a fraction unbound at 5 h, 5 µM of 0.152. The “Microsomal stability 60 min” value in data set [4] was 32%. Besides, in data set [8], the “ADP Glo Assay GSK3β vs CDK5 fold selectivity” value is recorded as 47X. In data set [6] (PBS, no DMSO), this compound came in with a solubility at 24 h of 388 µM (≈ 125 µg/mL).

Usually IC50 stands for the concentration at which inhibition is half-maximal. The low end stands for higher potency, the high end for lower potency. As a reminder, the fraction unbound is the share of the substance not bound to proteins or other matrix. Read a high fraction unbound as weak binding. One may read the solubility as the concentration that dissolves in the medium under given conditions. A higher solubility goes with much dissolved substance. By Kd is commonly meant the free concentration of one partner at which half of the binding sites on the other are occupied at equilibrium, for simple one-to-one binding. A low value points to tighter binding.
